Measured values taken from ChEMBL document CHEMBL1799917, “Isolation, sequencing, and structure-activity relationships of cyclotides” (J Nat Prod, 2010).
pEC50, pIC50: −log10 of the molar value. Values after ≈ are worked out from the molar mass of the structure shown. Where a SMILES comes first, the peptide text is derived from it. Bridges are numbered along the chain shown (N, C = ends).

Columns and labels:
[1] = tested on: CEM-SS (Homo sapiens); test: Cytotoxicity against human CEM-SS cells
[2] = tested on: Candida tropicalis; test: Antimicrobial activity against Candida tropicalis ATCC 37097; format: functional
[3] = tested on: Proteus vulgaris; test: Antimicrobial activity against Proteus vulgaris ATCC 49132; format: functional
[4] = tested on: Staphylococcus aureus; test: Antimicrobial activity against Staphylococcus aureus ATCC 29213; format: functional
[5] = Hemolytic activity in human type A RBC; format: ADME, cell-based, Erythrocyte; conditions: human type A red blood cells, read-out: HD50 (the source's name)
[6] = tested on: Kluyveromyces marxianus; test: Antimicrobial activity against Candida kefyr ATCC 37095; format: functional
[7] = tested on: Human immunodeficiency virus 1; test: Antiviral activity against HIV1; format: functional, organism-based

Compound	pEC50 [7]	pIC50 [1]	further results
CC[C@H](C)[C@@H]1NC(=O)[C@H](C)NC(=O)[C@H](C)NC(=O)[C@H](CO)NC(=O)[C@H]([C@@H](C)CC)NC(=O)[C@@H]2CSSC[C@@H]3NC(=O)[C@H](C(C)C)NC(=O)[C@H](CCCCN)NC(=O)[C@H](CC(N)=O)NC(=O)[C@H](CCCCN)NC(=O)[C@@H]4CSSC[C@H](NC(=O)[C@H](CO)NC(=O)[C@H](CCC(=O)O)NC(=O)CNC(=O)[C@H](CSSC[C@H](NC(=O)CNC1=O)C(=O)N[C@@H](CO)C(=O)N4)NC(=O)[C@@H]1CCCN1C(=O)[C@H]([C@@H](C)CC)NC(=O)[C@H](C)NC(=O)[C@H](CCCNC(=N)N)NC(=O)[C@H](Cc1ccc(O)cc1)NC3=O)C(=O)N[C@@H](C(C)C)C(=O)N[C@@H](Cc1c[nH]c3ccccc13)C(=O)N[C@@H]([C@@H](C)CC)C(=O)N1CCC[C@H]1C(=O)N2 [CIRCULIN F] (cyclo(AAIGCSCKNKVCYRAIPCGESCVWIPCIS); disulfide 5-18, 7-22, 12-27)	–	6.30	–
CC[C@H](C)[C@@H]1NC(=O)[C@@H]2CSSC[C@@H]3NC(=O)[C@H](C(C)C)NC(=O)[C@H](CCCCN)NC(=O)[C@H](CC(N)=O)NC(=O)[C@H](CCCCN)NC(=O)[C@@H]4CSSC[C@H](NC(=O)[C@H](CO)NC(=O)[C@H](CCC(=O)O)NC(=O)CNC(=O)[C@H](CSSC[C@H](NC(=O)CNC(=O)[C@H](CC(C)C)NC(=O)[C@H](C)NC(=O)[C@H](C)NC(=O)[C@H](CO)NC1=O)C(=O)N[C@@H](CO)C(=O)N4)NC(=O)[C@@H]1CCCN1C(=O)[C@H]([C@@H](C)CC)NC(=O)CNC(=O)[C@H](CC(N)=O)NC(=O)[C@H](CCCNC(=N)N)NC(=O)[C@H](Cc1ccc(O)cc1)NC3=O)C(=O)N[C@@H](C(C)C)C(=O)N[C@@H](Cc1c[nH]c3ccccc13)C(=O)N[C@@H]([C@@H](C)CC)C(=O)N1CCC[C@H]1C(=O)N2 [CIRCULIN A] (cyclo(AALGCSCKNKVCYRNGIPCGESCVWIPCIS); disulfide 5-19, 7-23, 12-28)	–	6.30	MIC [2]: 19.4 µM (≈ 61.1 µg/mL); MIC [3]: 54.6 µM (≈ 172 µg/mL); MIC [4]: 0.19 µM (≈ 0.599 µg/mL); HC50 [5]: 1.02 mM; MIC [6]: 18.6 µM (≈ 58.6 µg/mL)
CC[C@H](C)[C@@H]1NC(=O)[C@H](CO)NC(=O)[C@H]([C@@H](C)O)NC(=O)[C@H](Cc2ccc(O)cc2)NC(=O)[C@@H]2CSSC[C@@H]3NC(=O)[C@H](C(C)C)NC(=O)[C@H](CCCCN)NC(=O)[C@H](CC(N)=O)NC(=O)[C@H](CCC(=O)O)NC(=O)[C@@H]4CSSC[C@H](NC(=O)[C@H](CO)NC(=O)[C@H](CCC(=O)O)NC(=O)CNC(=O)[C@H](CSSC[C@H](NC(=O)[C@H](CC(N)=O)NC(=O)[C@H](Cc5ccccc5)NC1=O)C(=O)N[C@@H](CCCCN)C(=O)N4)NC(=O)[C@@H]1CCCN1C(=O)[C@H]([C@@H](C)CC)NC(=O)[C@H](CCCCN)NC(=O)[C@H](CC(=O)O)NC(=O)[C@H](Cc1cnc[nH]1)NC(=O)[C@H](Cc1ccc(O)cc1)NC3=O)C(=O)N[C@@H](C(C)C)C(=O)N[C@@H](Cc1c[nH]c3ccccc13)C(=O)N[C@@H]([C@@H](C)CC)C(=O)N1CCC[C@H]1C(=O)N2 [CIRCULIN D] (cyclo(CENKVCYHDKIPCGESCVWIPCYTSIFNCK); disulfide 1-17, 6-22, 13-29)	–	6.30	–
CC[C@H](C)[C@@H]1NC(=O)[C@H](C)NC(=O)[C@H](C)NC(=O)[C@H](CO)NC(=O)[C@H]([C@@H](C)CC)NC(=O)[C@@H]2CSSC[C@@H]3NC(=O)[C@H](C(C)C)NC(=O)[C@H](CCCCN)NC(=O)[C@H](CC(N)=O)NC(=O)[C@H](CCCCN)NC(=O)[C@@H]4CSSC[C@H](NC(=O)[C@H](CO)NC(=O)[C@H](CCC(=O)O)NC(=O)CNC(=O)[C@H](CSSC[C@H](NC(=O)CNC1=O)C(=O)N[C@@H](CO)C(=O)N4)NC(=O)[C@@H]1CCCN1C(=O)[C@H]([C@@H](C)CC)NC(=O)[C@H](C(C)C)NC(=O)CNC(=O)[C@H](CC(N)=O)NC(=O)[C@H](CCCNC(=N)N)NC(=O)[C@H](Cc1ccc(O)cc1)NC3=O)C(=O)N[C@@H](C(C)C)C(=O)N[C@@H](Cc1ccccc1)C(=O)N[C@@H]([C@@H](C)CC)C(=O)N1CCC[C@H]1C(=O)N2 [CYCLOVIOLN A] (cyclo(AAIGCSCKNKVCYRNGVIPCGESCVFIPCIS); disulfide 5-20, 7-24, 12-29)	6.89	6.25	–
CC[C@H](C)[C@@H]1NC(=O)[C@H](CCCCN)NC(=O)[C@H](CC(=O)O)NC(=O)[C@H](Cc2cnc[nH]2)NC(=O)[C@H](Cc2ccc(O)cc2)NC(=O)[C@@H]2CSSC[C@@H]3NC(=O)[C@@H]4CCCN4C(=O)[C@H]([C@@H](C)CC)NC(=O)[C@H](Cc4c[nH]c5ccccc45)NC(=O)[C@H](C(C)C)NC(=O)[C@@H]4CSSC[C@H](NC(=O)[C@H](CCCCN)NC(=O)[C@H](CSSC[C@H](NC(=O)[C@@H]5CCCN5C1=O)C(=O)NCC(=O)N[C@@H](CCC(=O)O)C(=O)N[C@@H](CO)C(=O)N4)NC(=O)[C@H](CC(N)=O)NC(=O)[C@H](Cc1ccccc1)NC(=O)[C@H](C(C)C)NC(=O)[C@H](CO)NC(=O)[C@H]([C@@H](C)O)NC(=O)[C@H](CC(C)C)NC3=O)C(=O)N[C@@H](CCC(=O)O)C(=O)N[C@@H](CC(N)=O)C(=O)N[C@@H](CCCCN)C(=O)N[C@@H](C(C)C)C(=O)N2 [CIRCULIN E] (cyclo(CENKVCYHDKIPCGESCVWIPCLTSVFNCK); disulfide 1-17, 6-22, 13-29)	–	6.30	–
CC[C@H](C)[C@@H]1NC(=O)[C@@H]2CSSC[C@@H]3NC(=O)[C@H](C(C)C)NC(=O)[C@H](CCCCN)NC(=O)[C@H](CO)NC(=O)[C@H](CCCCN)NC(=O)[C@@H]4CSSC[C@H](NC(=O)[C@H](CO)NC(=O)[C@H](CCC(=O)O)NC(=O)CNC(=O)[C@H](CSSC[C@H](NC(=O)CNC(=O)[C@H](C)NC(=O)[C@H](C(C)C)NC(=O)[C@H](CO)NC(=O)[C@H]([C@@H](C)O)NC1=O)C(=O)N[C@@H](CO)C(=O)N4)NC(=O)[C@@H]1CCCN1C(=O)[C@H]([C@@H](C)CC)NC(=O)CNC(=O)[C@H](CC(N)=O)NC(=O)[C@H](CCCNC(=N)N)NC(=O)[C@H](Cc1ccc(O)cc1)NC3=O)C(=O)N[C@@H](C(C)C)C(=O)N[C@@H](Cc1ccccc1)C(=O)N[C@@H]([C@@H](C)CC)C(=O)N1CCC[C@H]1C(=O)N2 [CIRCULIN C] (cyclo(AGCSCKSKVCYRNGIPCGESCVFIPCITSV); disulfide 3-17, 5-21, 10-26)	–	6.30	–

Further lines, with some results ahead:

pEC50 [7]	Compound	pIC50 [1]	further results
6.89	CC[C@H](C)[C@@H]1NC(=O)CNC(=O)[C@H](CC(N)=O)NC(=O)[C@H](CCCNC(=N)N)NC(=O)[C@H](Cc2ccc(O)cc2)NC(=O)[C@@H]2CSSC[C@@H]3NC(=O)[C@@H]4CCCN4C(=O)[C@H]([C@@H](C)CC)NC(=O)[C@H](Cc4ccccc4)NC(=O)[C@H](C(C)C)NC(=O)[C@@H]4CSSC[C@H](NC(=O)[C@H](CO)NC(=O)[C@H](CSSC[C@H](NC(=O)[C@@H]5CCCN5C1=O)C(=O)NCC(=O)N[C@@H](CCC(=O)O)C(=O)N[C@@H](CO)C(=O)N4)NC(=O)CNC(=O)[C@H](C)NC(=O)[C@H](C(C)C)NC(=O)[C@H]([C@@H](C)O)NC(=O)[C@H]([C@@H](C)O)NC(=O)[C@H](CC(C)C)NC3=O)C(=O)N[C@@H](CCCCN)C(=O)N[C@@H](CC(N)=O)C(=O)N[C@@H](CCCCN)C(=O)N[C@@H](C(C)C)C(=O)N2 [CYCLOVIOLIN C] (cyclo(AGCSCKNKVCYRNGIPCGESCVFIPCLTTV); disulfide 3-17, 5-21, 10-26)	6.25	–
6.89	CC[C@H](C)[C@@H]1NC(=O)[C@H](C)NC(=O)[C@H](C)NC(=O)[C@H](CO)NC(=O)[C@H]([C@@H](C)CC)NC(=O)[C@@H]2CSSC[C@@H]3NC(=O)[C@H](C(C)C)NC(=O)[C@H](CCCCN)NC(=O)[C@H](CC(N)=O)NC(=O)[C@H](CCCCN)NC(=O)[C@@H]4CSSC[C@H](NC(=O)[C@H](CO)NC(=O)[C@H](CCC(=O)O)NC(=O)CNC(=O)[C@H](CSSC[C@H](NC(=O)CNC1=O)C(=O)N[C@@H](CO)C(=O)N4)NC(=O)[C@@H]1CCCN1C(=O)[C@H](Cc1ccccc1)NC(=O)CNC(=O)[C@H](CC(N)=O)NC(=O)[C@H](CCCNC(=N)N)NC(=O)[C@H](Cc1ccc(O)cc1)NC3=O)C(=O)N[C@@H](C(C)C)C(=O)N[C@@H](Cc1ccccc1)C(=O)N[C@@H]([C@@H](C)CC)C(=O)N1CCC[C@H]1C(=O)N2 [CYCLOVIOLIN D] (cyclo(AAIGCSCKNKVCYRNGFPCGESCVFIPCIS); disulfide 5-19, 7-23, 12-28)	6.25	–
6.89	CC(C)C[C@@H]1NC(=O)[C@H](C(C)C)NC(=O)[C@H](Cc2ccc(O)cc2)NC(=O)[C@@H]2CSSC[C@@H]3NC(=O)[C@H]([C@@H](C)O)NC(=O)[C@@H]4CSSC[C@H](NC(=O)[C@H](C)NC(=O)[C@H]([C@@H](C)O)NC(=O)CNC(=O)[C@H](CC(N)=O)NC(=O)[C@H](CCCCN)NC(=O)[C@H](Cc5ccccc5)NC(=O)[C@H](CSSC[C@H](NC(=O)[C@@H]5CCCN5C1=O)C(=O)N[C@@H](Cc1ccccc1)C(=O)N[C@@H]([C@@H](C)O)C(=O)N[C@@H](C(C)C)C(=O)NCC(=O)N4)NC(=O)[C@H](CCC(N)=O)NC(=O)[C@H](CO)NC(=O)[C@H](CO)NC(=O)[C@H]([C@@H](C)O)NC3=O)C(=O)NCC(=O)N[C@@H](CCC(=O)O)C(=O)N[C@@H](CO)C(=O)N2 [CYCLOVIOLIN B] (cyclo(ACGESCYVLPCFTVGCTCTSSQCFKNGT); disulfide 2-16, 6-18, 11-23)	6.25	–
